Assay results taken from US11066368B2, “Process for the preparation and particle size reduction of pirfenidone” (Laurus Labs Limited, priority 2016, dated 2021).

Key:
Assay type in all cases: physicochemical
[1] = Particle size distribution after ultra sonication by sonoprocessor (RTUL 10SP-20-3000-SD); conditions: ultra sonication in water
Procedure: (§1) As used herein, the term “particle size distribution” is expressed in terms of D90, D50 and D10, which corresponds to the diameter of 90 percent by volume of the particles, 50 percent by volume of the particles and 10 percent by volume of the particles are present, respectively.
(§2) The particle size distribution of pirfenidone is measured utilizing: Instrument model: Malvern; Mastersizer 3000; particle refraction index of sample: 1.700; Absorption: 0.01 and Analysis model: general purpose, normal sensitivity, non-spherical particles.
Water (300 mL) and Pirfenidone (200 gr; Particle size distribution: D10: 1330 μm; D50: 1950 μm and D90: 2840 μm) were charged into reaction vessel at 25° C. to 35° C. and was placed Sonoprocessor into the reaction mass till required particle size was obtained at 25° C. to 35° C. Particle size distribution of the sample with different time interval was monitored by collecting the sample from reaction mass. After achieving the required particle size, stirred the reaction mixture for 30-60 min at 25° C. to 35° C. Further, the reaction mixture temperature was allowed to cool to 0° C. to 5° C. and stirred for 2-3 hrs at same temperature. Filter the solid and washed the wet cake with chilled water (100 mL), dried the solid in an oven under vacuum at 60° C. for 4-6 hours.
The following examples were performed using the above described process with different rpm and time; the obtained results are tabulated below: […]

[2] = Minimum ignition energy test by MIKE3; conditions: dust cloud, dried at 50° C., sieved through 63μ
Procedure: This test was performed based on international test method VDI 2263 part 1.2.5 using MIKE3. Pirfenidone was dried at 50° C. under vacuum, sieved through 63μ sieve. The product was converted into a dust cloud in glass cylindrical tube with compressed air. The spark for ignition was provided with moving electrodes assembly at different energy levels from 1 mJ to 1000 mJ. The energy just sufficient to ignite the dust under ignition was determined. This ignition energy was then successively halved with variation of the dust concentration and the ignition delay time in a series of tests until no ignition takes place in at least 10 successive experiments. The minimum ignition energy MIE lies between the lowest energy value at which ignition occurred and at the energy value at which no ignition observed for 10 successive experiments. The recommendations for interpreting MIE results are based on energy levels available on MIKE 3 apparatus. According to usual practice, MIE can be ranked as follow: […]

[3] = Particle size distribution after wet milling in colloid mill (IKA MK 2000/05); conditions: water
Procedure: as §1, §2
Pirfenidone (Particle size distribution: D10: 1330 μm; D50: 1950 μm and D90: 2840 μm) and Water (3 vol) were charged into IKA colloid mill at 25° C. to 35° C. and circulated the reaction mass at 25° C. to 35° C. till required particle size was obtained. Particle size distribution of the sample with different time interval was monitored by collecting the sample from reaction mass. After achieving the required particle size, stirred the reaction mixture for 30-60 min at 25° C. to 35° C. Further, the reaction mixture temperature was allowed to cool to 0° C. to 5° C. and stirred for 2-3 hrs at same temperature. Filter the solid and washed with the wet cake with chilled water (0.5 vol), dried the solid in an oven under vacuum at 60° C. for 4-6 hours.
The following examples were performed using the above described process with different circulation time and different rpm and obtained results are tabulated as below: […]

[4] = 3000 rpm, circulation time 60 mim
[5] = 3000 rpm, circulation time 120 mim
[6] = 3000 rpm, circulation time 30 min
[7] = 5000 rpm, circulation time 5 min
[8] = 5000 rpm, circulation time 60 min
[9] = 6000 rpm, circulation time 45 min
[10] = 6000 rpm, circulation time 1 hour
[11] = 6000 rpm, circulation time 2 hours, listed as 1A, 20 kg pirfenidone input
[12] = 6000 rpm, circulation time 2 hours, listed as 1B, 200 kg pirfenidone input
[13] = 6000 rpm, circulation time 3 hours, listed as 1A, 20 kg pirfenidone input
[14] = 6000 rpm, circulation time 3 hours, listed as 1B, 200 kg pirfenidone input
[15] = 6000 rpm, circulation time 4 hours, listed as 1A, 20 kg pirfenidone input
[16] = 6000 rpm, circulation time 4 hours, listed as 1B, 200 kg pirfenidone input
[17] = 6000 rpm, circulation time 5 hours, listed as 1A, 20 kg pirfenidone input
[18] = 6000 rpm, circulation time 5 hours, listed as 1B, 200 kg pirfenidone input
[19] = 6000 rpm, circulation time 6 hours, listed as 1A, 20 kg pirfenidone input
[20] = 6000 rpm, circulation time 6 hours, listed as 1B, 200 kg pirfenidone input
[21] = 6000 rpm, circulation time 7 hours
[22] = 6000 rpm, circulation time 8 hours, listed as 1B, 200 kg pirfenidone input
[23] = 6000 rpm, circulation time 8 hours, listed as 1C, 80 kg pirfenidone input
[24] = 6000 rpm, circulation time 9 hours
[25] = 6000 rpm, circulation time 10 hours, listed as 1B, 200 kg pirfenidone input
[26] = 6000 rpm, circulation time 10 hours, listed as 1C, 80 kg pirfenidone input
[27] = 6000 rpm, circulation time 12 hours, listed as 1B, 200 kg pirfenidone input
[28] = 6000 rpm, circulation time 12 hours, listed as 1C, 80 kg pirfenidone input
[29] = 6000 rpm, circulation time 14 hours
[30] = 6000 rpm, circulation time 16 hours
[31] = 6000 rpm, circulation time 19 hours
[32] = 8000 rpm, circulation time 5 min

- PSD D10 ([1]; sonication time 30 min): 44 μm
- PSD D50 ([1]; sonication time 30 min): 145 μm
- PSD D90 ([1]; sonication time 30 min): 245 μm
- PSD D10 ([1]; sonication time 60 min): 26 μm
- PSD D50 ([1]; sonication time 60 min): 101 μm
- PSD D90 ([1]; sonication time 60 min): 189 μm
- PSD D10 ([1]; sonication time 120 min): 19 μm
- PSD D50 ([1]; sonication time 120 min): 68 μm
- PSD D90 ([1]; sonication time 120 min): 150 μm
- PSD D10 ([1]; sonication time 180 min): 13 μm
- PSD D50 ([1]; sonication time 180 min): 48 μm
- PSD D90 ([1]; sonication time 180 min): 109 μm
- Es [2]: 1.7 mJ
- Minimum ignition energy MIE [2]: 1.7 mJ
- PSD D10 [3, 4]: 12 μm
- PSD D50 [3, 4]: 33 μm
- PSD D90 [3, 4]: 123 μm
- PSD D10 [3, 5]: 13 μm
- PSD D50 [3, 5]: 33 μm
- PSD D90 [3, 5]: 82 μm
- PSD D10 [3, 6]: 28 μm
- PSD D50 [3, 6]: 87 μm
- PSD D90 [3, 6]: 185 μm
- PSD D10 [3, 7]: 11 μm
- PSD D50 [3, 7]: 40 μm
- PSD D90 [3, 7]: 99 μm
- PSD D10 [3, 8]: 11 μm
- PSD D50 [3, 8]: 36 μm
- PSD D90 [3, 8]: 89 μm
- PSD D10 [3, 9]: 41 μm
- PSD D50 [3, 9]: 48 μm
- PSD D90 [3, 9]: 285 μm
- PSD D10 [3, 10]: 30 μm
- PSD D50 [3, 10]: 105 μm
- PSD D90 [3, 10]: 206 μm
- PSD D10 [3, 11]: 28 μm
- PSD D50 [3, 11]: 72 μm
- PSD D90 [3, 11]: 165 μm
- PSD D10 [3, 12]: 34 μm
- PSD D50 [3, 12]: 124 μm
- PSD D90 [3, 12]: 257 μm
- PSD D10 [3, 13]: 26 μm
- PSD D50 [3, 13]: 61 μm
- PSD D90 [3, 13]: 143 μm
- PSD D10 [3, 14]: 34 μm
- PSD D50 [3, 14]: 116 μm
- PSD D90 [3, 14]: 236 μm
- PSD D10 [3, 15]: 23 μm
- PSD D50 [3, 15]: 54 μm
- PSD D90 [3, 15]: 129 μm
- PSD D10 [3, 16]: 32 μm
- PSD D50 [3, 16]: 106 μm
- PSD D90 [3, 16]: 222 μm
- PSD D10 [3, 17]: 22 μm
- PSD D50 [3, 17]: 53 μm
- PSD D90 [3, 17]: 117 μm
- PSD D10 [3, 18]: 33 μm
- PSD D50 [3, 18]: 106 μm
- PSD D90 [3, 18]: 217 μm
- PSD D10 [3, 19]: 21 μm
- PSD D50 [3, 19]: 49 μm
- PSD D90 [3, 19]: 107 μm
- PSD D10 [3, 20]: 29 μm
- PSD D50 [3, 20]: 101 μm
- PSD D90 [3, 20]: 200 μm
- PSD D10 [3, 21]: 31 μm
- PSD D50 [3, 21]: 94 μm
- PSD D90 [3, 21]: 200 μm
- PSD D10 [3, 22]: 28 μm
- PSD D50 [3, 22]: 84 μm
- PSD D90 [3, 22]: 187 μm
- PSD D10 [3, 23]: 21 μm
- PSD D50 [3, 23]: 57 μm
- PSD D90 [3, 23]: 132 μm
- PSD D10 [3, 24]: 28 μm
- PSD D50 [3, 24]: 80 μm
- PSD D90 [3, 24]: 180 μm
- PSD D10 [3, 25]: 27 μm
- PSD D50 [3, 25]: 69 μm
- PSD D90 [3, 25]: 155 μm
- PSD D10 [3, 26]: 22 μm
- PSD D50 [3, 26]: 55 μm
- PSD D90 [3, 26]: 122 μm
- PSD D10 [3, 27]: 25 μm
- PSD D50 [3, 27]: 61 μm
- PSD D90 [3, 27]: 150 μm
- PSD D10 [3, 28]: 22 μm
- PSD D50 [3, 28]: 54 μm
- PSD D90 [3, 28]: 121 μm
- PSD D10 [3, 29]: 21 μm
- PSD D50 [3, 29]: 47 μm
- PSD D90 [3, 29]: 98 μm
- PSD D10 [3, 30]: 21 μm
- PSD D50 [3, 30]: 47 μm
- PSD D90 [3, 30]: 96 μm
- PSD D10 [3, 31]: 22 μm
- PSD D50 [3, 31]: 46 μm
- PSD D90 [3, 31]: 93 μm
- PSD D10 [3, 32]: 9 μm
- PSD D50 [3, 32]: 35 μm
- PSD D90 [3, 32]: 85 μm
SMILES: Cc1ccc(=O)n(-c2ccccc2)c1 [Pirfenidone, 5-methyl-1-phenyl-2-1(H)-pyridone]
